Columns and labels:
Format in all cases: cell-based
[1] = tested on: human OA synovium explants; assay: PGE2 levels in culture supernatant of synovium explants; details: n = 5 donors, 24 h, relative to control (Figure 6C)
Method: (§1) Figure 6 Peptide p[63−82] activity on OA knee joint tissues Human OA knee joint tissues were cultured for 24 h in the presence of BMP7, peptide p[63−82], or the scrambled version of peptide p[63−82] and compared to control conditions. (A) Cartilage tissues (n = 7 individual donors) were exposed to shown conditions and analyzed for COL2A1, COL10A1, and COX-2 mRNA expression by quantitative real-time PCR (normalized for 28S rRNA expression and relative to control conditions). (B) GAG release in medium from cartilage tissues (n = 5 individual donors) was determined, and data were calculated relative to the control condition. (C) PGE2 levels in culture supernatant from synovium (n = 5 donors). (D) PGE2 levels in culture supernatant from cartilage tissues from (B) (n = 5 donors). (E) PGE2 levels in culture supernatant from IPFP (n = 5 donors). (F) PGE2 levels in culture supernatant from the meniscus. Synovium, IPFP, and meniscus tissues were from the same 5 donors as the cartilage tissues in (B) and (C). PGE2 levels in conditions were calculated relative to controls for each donor. In graphs, error bars represent mean ± SEM; data are presented relative to the control condition for each time point. Statistical differences (unpaired two-tailed Student’s t test) were calculated to control condition: ∗p < 0.05, ∗∗p < 0.01, and ∗∗∗p < 0.001. […]

[2] = tested on: human OA infra-patellar fat pad (IPFP) explants; assay: PGE2 levels in culture supernatant of IPFP explants; details: n = 5 donors, 24 h, relative to control (Figure 6E)
Method: as §1

[3] = tested on: human OA meniscus explants; assay: PGE2 levels in culture supernatant of meniscus explants; details: 24 h, relative to control (Figure 6F)
Method: as §1

Row | Substance | PGE2 levels in culture supernatants of synovial explants [1] | PGE2 levels from IPFP explants [2] | PGE2 levels from meniscus explants [3]
1 | BMP7: full-length recombinant bone morphogenetic protein 7 (R&D Systems), used at 1 nM | not significantly changed | reduced | reduced
2 | H-AAYYSEGESAFPLNSYMNAT-OH [p[63−82]] | not significantly changed | reduced | reduced
